According to patent US10870647B2, “Imidazopyridine derivative, method for preparing same, and pharmaceutical composition containing same as active ingredient for preventing or treating cancer” (DAEGU-GYEONGBUK MEDICAL INNOVATION FOUNDATION, priority 2016, dated 2020):

Tests used:
Assay in all cases: Kinase selectivity, scanMAX Kinase assay panel (DiscoverX), % control at 1 uM
Type in all cases: binding
[1] = target: T1, scanMAX Kinase assay panel (Homo sapiens, UniProt O96017); conditions: CHEK2; 1 uM; read-out: Percent Control (%)
T1 construct: purchased DiscoverX
T1 sequence (O96017 whole entry): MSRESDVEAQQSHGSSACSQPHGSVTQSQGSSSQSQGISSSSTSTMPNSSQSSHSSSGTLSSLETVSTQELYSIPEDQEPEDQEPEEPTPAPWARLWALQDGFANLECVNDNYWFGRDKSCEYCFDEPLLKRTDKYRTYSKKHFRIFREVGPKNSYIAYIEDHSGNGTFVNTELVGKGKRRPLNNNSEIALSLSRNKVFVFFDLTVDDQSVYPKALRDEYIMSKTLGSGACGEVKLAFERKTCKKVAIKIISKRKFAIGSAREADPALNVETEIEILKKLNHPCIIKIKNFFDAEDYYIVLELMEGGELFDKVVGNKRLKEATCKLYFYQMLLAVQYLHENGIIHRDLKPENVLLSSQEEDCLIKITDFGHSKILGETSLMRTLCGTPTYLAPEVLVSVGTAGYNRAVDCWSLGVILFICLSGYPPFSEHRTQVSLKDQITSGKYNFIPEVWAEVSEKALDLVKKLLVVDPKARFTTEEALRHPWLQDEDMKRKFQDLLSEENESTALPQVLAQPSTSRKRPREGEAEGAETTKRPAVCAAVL
Method in brief: (§1)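 Read-out is percent of control, derived from the signal with compound relative to positive and negative controls: (compound − positive)/(negative − positive) × 100. Each enzyme received test drug at 1 uM in DMSO, and values under 35% count as active.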

[2] = target: T2, scanMAX Kinase assay panel (Homo sapiens, UniProt Q9H4A3); conditions: WNK1; 1 uM; read-out: Percent Control (%)
T2 construct: purchased DiscoverX
T2 sequence (Q9H4A3 whole entry): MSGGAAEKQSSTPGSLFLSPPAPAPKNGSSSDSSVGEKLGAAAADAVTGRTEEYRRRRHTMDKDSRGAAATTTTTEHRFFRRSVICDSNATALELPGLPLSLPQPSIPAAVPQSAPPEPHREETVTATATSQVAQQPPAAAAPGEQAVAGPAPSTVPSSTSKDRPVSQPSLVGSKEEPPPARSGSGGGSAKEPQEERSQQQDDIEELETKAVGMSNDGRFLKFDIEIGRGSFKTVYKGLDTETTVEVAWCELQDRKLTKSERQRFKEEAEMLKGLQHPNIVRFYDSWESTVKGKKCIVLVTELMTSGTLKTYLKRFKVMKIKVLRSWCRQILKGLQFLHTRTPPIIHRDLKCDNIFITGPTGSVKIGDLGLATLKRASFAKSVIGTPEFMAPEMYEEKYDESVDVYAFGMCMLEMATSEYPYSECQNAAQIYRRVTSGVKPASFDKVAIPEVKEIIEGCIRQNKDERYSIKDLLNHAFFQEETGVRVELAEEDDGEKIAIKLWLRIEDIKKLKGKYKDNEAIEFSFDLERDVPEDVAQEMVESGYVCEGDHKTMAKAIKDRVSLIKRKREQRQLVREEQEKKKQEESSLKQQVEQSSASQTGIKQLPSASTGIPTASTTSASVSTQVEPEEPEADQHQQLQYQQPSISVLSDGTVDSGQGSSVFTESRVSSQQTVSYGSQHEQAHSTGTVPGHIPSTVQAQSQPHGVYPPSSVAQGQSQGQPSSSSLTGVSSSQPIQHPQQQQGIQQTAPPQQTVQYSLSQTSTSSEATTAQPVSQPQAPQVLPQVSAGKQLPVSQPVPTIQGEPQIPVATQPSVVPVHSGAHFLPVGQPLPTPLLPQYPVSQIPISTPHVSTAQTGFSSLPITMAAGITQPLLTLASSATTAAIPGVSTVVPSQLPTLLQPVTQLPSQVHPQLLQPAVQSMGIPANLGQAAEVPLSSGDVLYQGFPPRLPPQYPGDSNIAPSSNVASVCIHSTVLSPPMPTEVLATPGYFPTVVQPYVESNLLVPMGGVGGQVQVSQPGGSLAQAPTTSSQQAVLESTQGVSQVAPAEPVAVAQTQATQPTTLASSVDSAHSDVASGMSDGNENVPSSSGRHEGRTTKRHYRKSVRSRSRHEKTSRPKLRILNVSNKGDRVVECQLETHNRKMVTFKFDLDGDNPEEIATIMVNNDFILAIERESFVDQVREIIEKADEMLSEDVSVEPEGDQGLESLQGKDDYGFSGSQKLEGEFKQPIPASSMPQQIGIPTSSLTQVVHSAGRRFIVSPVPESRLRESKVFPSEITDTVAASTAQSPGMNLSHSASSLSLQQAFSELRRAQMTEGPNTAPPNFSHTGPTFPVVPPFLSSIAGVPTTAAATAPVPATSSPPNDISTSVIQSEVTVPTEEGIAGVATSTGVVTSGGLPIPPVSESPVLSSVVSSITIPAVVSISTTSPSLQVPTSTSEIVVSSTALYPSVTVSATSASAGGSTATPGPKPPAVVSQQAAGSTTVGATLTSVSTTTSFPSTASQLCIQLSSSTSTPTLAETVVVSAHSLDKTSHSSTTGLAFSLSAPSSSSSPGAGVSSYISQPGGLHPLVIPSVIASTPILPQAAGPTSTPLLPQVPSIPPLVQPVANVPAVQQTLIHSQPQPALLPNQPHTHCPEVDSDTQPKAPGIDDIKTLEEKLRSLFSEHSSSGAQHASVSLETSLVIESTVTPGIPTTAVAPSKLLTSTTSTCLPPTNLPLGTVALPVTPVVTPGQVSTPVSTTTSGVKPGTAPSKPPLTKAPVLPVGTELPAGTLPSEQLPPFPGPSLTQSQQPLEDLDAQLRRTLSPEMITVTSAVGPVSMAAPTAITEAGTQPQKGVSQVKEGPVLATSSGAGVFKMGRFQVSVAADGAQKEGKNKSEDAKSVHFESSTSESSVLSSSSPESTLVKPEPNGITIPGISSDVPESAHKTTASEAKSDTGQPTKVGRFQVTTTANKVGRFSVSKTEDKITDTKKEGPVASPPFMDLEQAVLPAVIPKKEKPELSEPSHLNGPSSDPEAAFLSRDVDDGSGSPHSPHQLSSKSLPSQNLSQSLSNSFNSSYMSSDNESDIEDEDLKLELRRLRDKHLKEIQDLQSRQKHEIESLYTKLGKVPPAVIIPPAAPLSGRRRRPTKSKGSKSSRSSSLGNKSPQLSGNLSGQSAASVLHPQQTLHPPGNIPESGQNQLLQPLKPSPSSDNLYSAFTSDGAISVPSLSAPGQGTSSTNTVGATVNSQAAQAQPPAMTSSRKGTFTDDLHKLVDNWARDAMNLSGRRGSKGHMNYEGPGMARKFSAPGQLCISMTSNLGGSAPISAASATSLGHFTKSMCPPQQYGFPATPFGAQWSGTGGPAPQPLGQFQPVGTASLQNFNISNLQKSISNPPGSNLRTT
Method in brief: as §1

[3] = target: T3, scanMAX Kinase assay panel (Homo sapiens, UniProt Q12866); conditions: MERTK; 1 uM; read-out: Percent Control (%)
T3 construct: purchased DiscoverX
T3 sequence (Q12866 21-999): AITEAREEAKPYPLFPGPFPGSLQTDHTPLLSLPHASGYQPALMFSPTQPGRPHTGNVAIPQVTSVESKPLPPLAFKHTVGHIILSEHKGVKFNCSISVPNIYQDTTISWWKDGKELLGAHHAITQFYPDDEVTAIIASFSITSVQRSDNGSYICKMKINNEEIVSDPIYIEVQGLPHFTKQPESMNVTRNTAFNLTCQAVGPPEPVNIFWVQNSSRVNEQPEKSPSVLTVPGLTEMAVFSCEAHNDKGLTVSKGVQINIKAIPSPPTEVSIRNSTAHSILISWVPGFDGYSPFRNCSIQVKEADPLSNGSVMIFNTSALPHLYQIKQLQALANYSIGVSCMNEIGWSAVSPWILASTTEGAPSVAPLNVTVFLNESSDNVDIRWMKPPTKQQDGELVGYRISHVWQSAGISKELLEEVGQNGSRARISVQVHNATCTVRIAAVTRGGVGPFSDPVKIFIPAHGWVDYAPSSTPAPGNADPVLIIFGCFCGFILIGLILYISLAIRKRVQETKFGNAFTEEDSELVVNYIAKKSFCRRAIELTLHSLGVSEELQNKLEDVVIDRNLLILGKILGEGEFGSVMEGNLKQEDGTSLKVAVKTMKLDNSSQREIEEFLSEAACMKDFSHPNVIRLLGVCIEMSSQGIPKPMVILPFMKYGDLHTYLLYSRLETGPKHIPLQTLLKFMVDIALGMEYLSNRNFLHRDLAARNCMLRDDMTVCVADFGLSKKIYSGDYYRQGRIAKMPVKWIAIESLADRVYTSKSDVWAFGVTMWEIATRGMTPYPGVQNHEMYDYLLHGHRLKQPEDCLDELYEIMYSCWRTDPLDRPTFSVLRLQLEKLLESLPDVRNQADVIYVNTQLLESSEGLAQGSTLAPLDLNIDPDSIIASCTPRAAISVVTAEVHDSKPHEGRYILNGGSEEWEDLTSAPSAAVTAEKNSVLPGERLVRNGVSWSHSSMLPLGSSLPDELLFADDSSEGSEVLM
Method in brief: as §1

[4] = target: T4, scanMAX Kinase assay panel (Homo sapiens, UniProt Q12851); conditions: MAP4K2; 1 uM; read-out: Percent Control (%)
T4 construct: purchased DiscoverX
T4 sequence (Q12851 1-820): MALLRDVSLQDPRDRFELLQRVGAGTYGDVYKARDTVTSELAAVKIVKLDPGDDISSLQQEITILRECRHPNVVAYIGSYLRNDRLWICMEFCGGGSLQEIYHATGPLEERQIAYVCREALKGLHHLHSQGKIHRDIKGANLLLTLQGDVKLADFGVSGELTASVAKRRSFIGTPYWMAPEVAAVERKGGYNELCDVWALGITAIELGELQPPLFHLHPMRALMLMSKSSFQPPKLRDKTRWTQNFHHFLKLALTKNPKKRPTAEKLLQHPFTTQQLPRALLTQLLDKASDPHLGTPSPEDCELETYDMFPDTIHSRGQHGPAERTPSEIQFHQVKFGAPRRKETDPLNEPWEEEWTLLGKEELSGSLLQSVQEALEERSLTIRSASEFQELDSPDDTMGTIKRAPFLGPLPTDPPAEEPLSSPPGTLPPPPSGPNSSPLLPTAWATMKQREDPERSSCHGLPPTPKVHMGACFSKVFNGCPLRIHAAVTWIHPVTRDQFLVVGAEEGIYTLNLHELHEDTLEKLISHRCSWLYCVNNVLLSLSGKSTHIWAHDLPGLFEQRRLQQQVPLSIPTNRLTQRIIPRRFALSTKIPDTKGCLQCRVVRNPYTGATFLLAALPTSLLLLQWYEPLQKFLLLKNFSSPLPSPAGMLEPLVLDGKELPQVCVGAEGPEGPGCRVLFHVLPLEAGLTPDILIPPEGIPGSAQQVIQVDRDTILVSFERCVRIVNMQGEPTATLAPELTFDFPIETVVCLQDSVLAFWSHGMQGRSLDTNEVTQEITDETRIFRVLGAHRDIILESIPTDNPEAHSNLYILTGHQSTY
Method in brief: as §1

[5] = target: T5, scanMAX Kinase assay panel (Homo sapiens, UniProt P42338); conditions: PIK3CB; 1 uM; read-out: Percent Control (%)
T5 construct: purchased DiscoverX
T5 sequence (P42338 whole entry): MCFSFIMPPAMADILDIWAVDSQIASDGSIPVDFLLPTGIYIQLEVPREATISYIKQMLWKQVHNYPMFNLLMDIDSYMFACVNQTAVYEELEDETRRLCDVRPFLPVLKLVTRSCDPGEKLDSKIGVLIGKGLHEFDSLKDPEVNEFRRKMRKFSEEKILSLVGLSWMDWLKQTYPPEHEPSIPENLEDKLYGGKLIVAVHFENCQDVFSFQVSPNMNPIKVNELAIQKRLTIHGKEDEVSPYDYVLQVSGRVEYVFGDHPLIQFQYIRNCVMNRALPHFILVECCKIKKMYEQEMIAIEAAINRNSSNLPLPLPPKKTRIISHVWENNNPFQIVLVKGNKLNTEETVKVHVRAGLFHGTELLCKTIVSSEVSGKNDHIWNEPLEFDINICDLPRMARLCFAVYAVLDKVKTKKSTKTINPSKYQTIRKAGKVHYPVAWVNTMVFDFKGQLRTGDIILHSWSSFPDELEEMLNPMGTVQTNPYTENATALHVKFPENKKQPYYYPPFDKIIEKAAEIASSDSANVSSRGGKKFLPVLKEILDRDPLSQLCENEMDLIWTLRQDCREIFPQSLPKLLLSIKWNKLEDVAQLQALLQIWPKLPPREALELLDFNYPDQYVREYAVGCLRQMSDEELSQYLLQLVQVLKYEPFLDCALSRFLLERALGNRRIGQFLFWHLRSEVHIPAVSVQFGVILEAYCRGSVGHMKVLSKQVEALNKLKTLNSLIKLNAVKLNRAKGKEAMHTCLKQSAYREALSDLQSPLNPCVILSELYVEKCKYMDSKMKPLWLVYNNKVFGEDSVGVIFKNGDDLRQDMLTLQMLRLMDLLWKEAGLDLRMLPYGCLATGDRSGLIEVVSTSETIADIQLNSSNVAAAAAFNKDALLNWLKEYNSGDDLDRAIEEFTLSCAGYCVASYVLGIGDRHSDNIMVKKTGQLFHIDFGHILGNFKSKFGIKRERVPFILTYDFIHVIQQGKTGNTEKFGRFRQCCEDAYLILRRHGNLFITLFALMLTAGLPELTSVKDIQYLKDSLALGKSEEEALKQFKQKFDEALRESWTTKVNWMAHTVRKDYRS
Method in brief: as §1

[6] = target: T6, scanMAX Kinase assay panel (Homo sapiens, UniProt O43318); conditions: TAK1; 1 uM; read-out: Percent Control (%)
T6 construct: purchased DiscoverX
T6 sequence (O43318 1-606): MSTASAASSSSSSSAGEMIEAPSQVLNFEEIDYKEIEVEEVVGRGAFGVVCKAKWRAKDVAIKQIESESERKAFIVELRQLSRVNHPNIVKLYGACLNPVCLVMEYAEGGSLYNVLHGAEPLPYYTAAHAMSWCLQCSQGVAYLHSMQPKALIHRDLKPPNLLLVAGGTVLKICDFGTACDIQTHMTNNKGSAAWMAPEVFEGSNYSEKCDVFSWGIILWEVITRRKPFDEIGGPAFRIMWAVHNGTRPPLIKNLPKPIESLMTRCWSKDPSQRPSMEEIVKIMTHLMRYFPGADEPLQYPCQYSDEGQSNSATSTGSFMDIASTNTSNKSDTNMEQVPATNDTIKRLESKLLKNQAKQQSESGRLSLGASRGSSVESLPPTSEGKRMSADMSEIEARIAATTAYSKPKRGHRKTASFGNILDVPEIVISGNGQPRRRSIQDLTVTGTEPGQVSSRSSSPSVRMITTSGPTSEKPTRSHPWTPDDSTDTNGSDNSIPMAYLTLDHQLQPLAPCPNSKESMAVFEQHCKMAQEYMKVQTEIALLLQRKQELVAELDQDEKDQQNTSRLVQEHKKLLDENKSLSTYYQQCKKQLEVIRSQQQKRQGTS
Method in brief: as §1

Row | Compound | remaining binding at 1 µM [1] | remaining binding at 1 µM [2] | remaining binding at 1 µM [3] | remaining binding at 1 µM [4] | remaining binding at 1 µM [5] | remaining binding at 1 µM [6]
1 | Cc1ccc(NC(=O)C2(C(=O)Nc3ccc(F)cc3)CC2)cc1C#Cc1cnc2c(Nc3cnn(C(C)C)c3)cccn12 [Example 78] | 91% | 92% | 100% | 100% | 100% | 76%
2 | Cc1cn(-c2cc(NC(=O)c3ccc(C)c(C#Cc4cnc5c(Nc6cnn(C)c6)cccn45)c3)cc(C(F)(F)F)c2)cn1 [Example 12, 4-methyl-N-(3-(4-methyl-1H-imidazol-1-yl)-5-(trifluoromethyl)phenyl)-3-((8-((1-methyl-1H-pyrazol-4-yl)amino)imidazo[1,2-a]pyridin-3-yl)ethynyl)benzamide] | 84% | 100% | 3% | 98% | 100% | 14%
3 | Cc1ccc(C(=O)Nc2ccc(CN3CCN(C)CC3)c(C(F)(F)F)c2)cc1C#Cc1cnc2c(Nc3cnn(C)c3)cccn12 [Example 1, 4-methyl-3-((8-((1-methyl-1H-pyrazol-4-yl)amino)imidazo[1,2-a]pyridin-3-yl)ethynyl)-N-(4-((4-methylpiperazin-1-yl)methyl)-3-(trifluoromethyl)phenyl)benzamide] | 34% | 55% | 0% | 1% | 92% | 0%
